In assay [1] the target is T1, AR (Homo sapiens, UniProt P10275, Q868H).
T1 construct: endogenous in cells; host or cells: parental MDA-MB453
T1 sequence (P10275 1-920 Q868H): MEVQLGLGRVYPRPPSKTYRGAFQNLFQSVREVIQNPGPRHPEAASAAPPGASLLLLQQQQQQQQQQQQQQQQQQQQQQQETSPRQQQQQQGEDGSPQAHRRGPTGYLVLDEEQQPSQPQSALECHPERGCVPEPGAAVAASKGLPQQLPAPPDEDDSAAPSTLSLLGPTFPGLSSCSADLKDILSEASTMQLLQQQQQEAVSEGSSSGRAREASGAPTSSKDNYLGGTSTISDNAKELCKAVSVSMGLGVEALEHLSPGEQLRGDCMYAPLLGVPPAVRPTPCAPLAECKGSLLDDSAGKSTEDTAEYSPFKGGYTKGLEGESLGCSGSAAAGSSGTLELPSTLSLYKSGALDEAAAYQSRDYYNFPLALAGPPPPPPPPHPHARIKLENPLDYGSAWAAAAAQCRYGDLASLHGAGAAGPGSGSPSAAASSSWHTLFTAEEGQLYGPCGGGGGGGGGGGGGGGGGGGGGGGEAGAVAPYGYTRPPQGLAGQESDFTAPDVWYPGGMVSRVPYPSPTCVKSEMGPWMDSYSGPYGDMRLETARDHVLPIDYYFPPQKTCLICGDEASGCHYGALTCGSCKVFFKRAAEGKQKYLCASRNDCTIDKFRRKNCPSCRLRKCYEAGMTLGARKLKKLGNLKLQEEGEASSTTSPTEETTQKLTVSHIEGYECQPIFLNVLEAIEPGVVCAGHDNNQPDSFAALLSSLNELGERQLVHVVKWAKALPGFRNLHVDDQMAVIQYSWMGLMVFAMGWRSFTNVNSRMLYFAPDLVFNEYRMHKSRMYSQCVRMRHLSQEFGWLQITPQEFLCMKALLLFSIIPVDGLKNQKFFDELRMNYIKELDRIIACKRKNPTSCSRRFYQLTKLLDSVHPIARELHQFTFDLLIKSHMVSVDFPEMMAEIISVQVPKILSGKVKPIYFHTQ
Nature of the assay: testosterone-stimulated parental MDA-MB453 (direct effects on AR). In kind it is cell-based.

In assay [2] the target is T2, 17β-HSD3 (Homo sapiens, UniProt P37058).
T2 sequence (P37058 1-310): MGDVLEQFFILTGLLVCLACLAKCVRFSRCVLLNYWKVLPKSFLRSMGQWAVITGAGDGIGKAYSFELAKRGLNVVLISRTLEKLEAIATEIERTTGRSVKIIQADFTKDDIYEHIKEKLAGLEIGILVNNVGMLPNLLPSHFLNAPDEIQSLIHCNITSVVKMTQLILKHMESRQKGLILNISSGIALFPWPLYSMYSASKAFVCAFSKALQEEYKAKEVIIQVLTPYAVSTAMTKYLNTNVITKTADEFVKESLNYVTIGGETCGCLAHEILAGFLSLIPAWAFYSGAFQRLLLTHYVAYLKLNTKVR
The experiment in a line: TLC assay of androstenedione to testosterone conversion in Shinogi-17β-HSD3 cells. In kind it is cell-based. Particulars: Shinogi-17β-HSD3 cells incubated with {3H}-androstenedione; read-out: IC50 estimated by TLC assay. The protocol: Cells were plated in 24-well tissue culture plates at 5×10^4 cells per well in their appropriate media. After allowing the cells to adhere for 24 hours, the media was changed to contain 10% cFBS (charcoal treated FBS) (300 μL) per well and 0.5μ Ci of the radiolabeled hormones were added to each well. After 3 hours, the supernatant was removed and 500 μL of extraction buffer (3 parts Ethyl Acetate: 1 part Acetone) was added to each sample and vortexed extensively. The organic layer was carefully removed and dried down in siliconized 1.5 mL microfuge tubes (National Scientific Supply Co.). […] The BAS screens were then read using a Fujifilm PhosphoImager FLA-2000 and spots were quantitated using the Fujifilm MacBas imaging/densitometry program.
The characterization of breast and prostate tumor cell lines for the 17β-HSD activities enabled the identification of cells which could be engineered for preferred 17β-HSD3 activity to monitor the cellular effects of inhibitors. […] In addition, 17β-HSD mRNA was not detected at appreciable levels in these cells by RT-PCR (data not shown). […]
To confirm that this class of compounds was inhibiting 17β-HSD3, Shinogi-17β-HSD3 cells incubated with {3H}-androstenedione were analyzed by TLC assay following 2-[(3-chloro-4-hydroxybenzoyl)amino]-N-[2-(2-methoxyphenyl)ethyl]-5-phenoxybenzamide treatment.

Assay [3] has as its system testosterone biosynthesis. The experiment in a line: testosterone levels in intact rats. It counts as in vivo. Particulars: p.o., over 14 days, FIG. 6. The protocol: Intact rats were administered p.o. the indicated doses of 18β-glycyrrhetinic acid over 14 days and testosterone levels were determined.

The values that follow come from patent US7138246B2, “Methods for identifying or screening for agents that modulate 17β-HSD3” (Bristol-Myers Squibb Company, priority 2004, dated 2006).

Consider `C[C@]12C=CC(=O)C=C1C(=O)C[C@@H]1[C@@H]2CC[C@]2(C)C(=O)CC[C@@H]12` [1,4-androstadiene-1,6,17-trione], for which the “effects on testosterone-stimulated parental MDA-MB453” value in assay [1] is “No effects were observed”. The IC50 is the point on the concentration scale where inhibition reaches its midpoint. In the case of `COc1ccccc1CCNC(=O)c1cc(Oc2ccccc2)ccc1NC(=O)c1ccc(O)c(Cl)c1` [2-[(3-chloro-4-hydroxybenzoyl)amino]-N-[2-(2-methoxyphenyl)ethyl]-5-phenoxybenzamide], in assay [2], the IC50 is roughly 300 nM. Turning to `CC1(C)[C@@H](O)CC[C@]2(C)[C@H]3C(=O)C=C4[C@@H]5C[C@@](C)(C(=O)O)CC[C@]5(C)CC[C@@]4(C)[C@]3(C)CC[C@@H]12` [18β-glycyrrhetinic acid], the “effects on testosterone-stimulated parental MDA-MB453” value in assay [1] was “No effects were observed”. Also, the “testosterone biosynthesis (testosterone levels)” value in assay [3] was “inhibition of testosterone biosynthesis”.
